{"source": "PubChem BioAssay (NCI)", "assay_in_all_cases": "NCI anticancer screen, dose series, 384-well format", "key": {"EKVX NSCLC": {"tested_on": "EKVX NSCLC"}, "SR leukemia": {"tested_on": "SR leukemia"}, "RPMI-8226 leukemia": {"tested_on": "RPMI-8226 leukemia"}, "HS 578T breast": {"tested_on": "HS 578T breast"}, "A498 renal": {"tested_on": "A498 renal"}, "SF-539 CNS": {"tested_on": "SF-539 CNS"}, "NCI-H23 lung": {"tested_on": "NCI-H23 lung"}, "HOP-92 NSCLC": {"tested_on": "HOP-92 NSCLC"}, "NCI-H322M lung": {"tested_on": "NCI-H322M lung"}, "MOLT-4 leukemia": {"tested_on": "MOLT-4 leukemia"}, "CAKI-1 renal": {"tested_on": "CAKI-1 renal"}, "SK-MEL-28 melanoma": {"tested_on": "SK-MEL-28 melanoma"}, "HOP-62 NSCLC": {"tested_on": "HOP-62 NSCLC"}, "NCI-H522 lung": {"tested_on": "NCI-H522 lung"}, "M14 melanoma": {"tested_on": "M14 melanoma"}, "HL-60(TB) leukemia": {"tested_on": "HL-60(TB) leukemia"}, "SK-MEL-5 melanoma": {"tested_on": "SK-MEL-5 melanoma"}, "SW-620 colon": {"tested_on": "SW-620 colon"}, "HT29 colon": {"tested_on": "HT29 colon"}, "NCI-H226 lung": {"tested_on": "NCI-H226 lung"}, "MDA-MB-435 melanoma": {"tested_on": "MDA-MB-435 melanoma"}, "MCF7 breast": {"tested_on": "MCF7 breast"}, "SK-OV-3 ovarian": {"tested_on": "SK-OV-3 ovarian"}, "IGROV1 ovarian": {"tested_on": "IGROV1 ovarian"}, "UO-31 renal": {"tested_on": "UO-31 renal"}, "HCT-116 colon": {"tested_on": "HCT-116 colon"}, "LOX IMVI melanoma": {"tested_on": "LOX IMVI melanoma"}, "A549 NSCLC": {"tested_on": "A549 NSCLC"}, "SN12C renal": {"tested_on": "SN12C renal"}}, "note": "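The concentration for 50% growth inhibition is given as GI50. TGI: concentration producing complete growth inhibition.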"}
{"compound": "Cc1nc(-c2cn3c(n2)-c2ccc(-c4cnn(C(C)(C)C(N)=O)c4)cc2OCC3)n(C(C)C)n1", "values": [{"measurement": "GI50", "setting": "EKVX NSCLC", "result": 0.756, "unit": "µM"}, {"measurement": "TGI", "setting": "EKVX NSCLC", "result": 15.4, "unit": "µM"}, {"measurement": "GI50", "setting": "SR leukemia", "result": 0.785, "unit": "µM"}, {"measurement": "TGI", "setting": "SR leukemia", "result": 2.53, "unit": "µM"}, {"measurement": "GI50", "setting": "RPMI-8226 leukemia", "result": 3.21, "unit": "µM"}, {"measurement": "TGI", "setting": "RPMI-8226 leukemia", "result": 13.3, "unit": "µM"}, {"measurement": "GI50", "setting": "HS 578T breast", "result": 0.567, "unit": "µM"}, {"measurement": "TGI", "setting": "HS 578T breast", "result": 12.5, "unit": "µM"}, {"measurement": "GI50", "setting": "A498 renal", "result": 1.96, "unit": "µM"}, {"measurement": "TGI", "setting": "A498 renal", "result": 12.4, "unit": "µM"}, {"measurement": "GI50", "setting": "SF-539 CNS", "result": 1.09, "unit": "µM"}, {"measurement": "TGI", "setting": "SF-539 CNS", "result": 20.2, "unit": "µM"}, {"measurement": "GI50", "setting": "NCI-H23 lung", "result": 11.3, "unit": "µM"}, {"measurement": "TGI", "setting": "NCI-H23 lung", "result": 50.5, "unit": "µM"}, {"measurement": "GI50", "setting": "HOP-92 NSCLC", "result": 0.226, "unit": "µM"}, {"measurement": "TGI", "setting": "HOP-92 NSCLC", "result": 29.9, "unit": "µM"}, {"measurement": "GI50", "setting": "NCI-H322M lung", "result": 0.312, "unit": "µM"}, {"measurement": "TGI", "setting": "NCI-H322M lung", "result": 14.2, "unit": "µM"}, {"measurement": "GI50", "setting": "MOLT-4 leukemia", "result": 0.0746, "unit": "µM"}, {"measurement": "TGI", "setting": "MOLT-4 leukemia", "result": 1.12, "unit": "µM"}, {"measurement": "GI50", "setting": "CAKI-1 renal", "result": 0.342, "unit": "µM"}, {"measurement": "TGI", "setting": "CAKI-1 renal", "result": 31.8, "unit": "µM"}, {"measurement": "GI50", "setting": "SK-MEL-28 melanoma", "result": 0.484, "unit": "µM"}, {"measurement": "TGI", "setting": "SK-MEL-28 melanoma", "result": "> 100", "unit": "µM"}, {"measurement": "GI50", "setting": "HOP-62 NSCLC", "result": 5.99, "unit": "µM"}, {"measurement": "TGI", "setting": "HOP-62 NSCLC", "result": 91.3, "unit": "µM"}, {"measurement": "GI50", "setting": "NCI-H522 lung", "result": 3.56, "unit": "µM"}, {"measurement": "TGI", "setting": "NCI-H522 lung", "result": 27.3, "unit": "µM"}, {"measurement": "GI50", "setting": "M14 melanoma", "result": 7.41, "unit": "µM"}, {"measurement": "TGI", "setting": "M14 melanoma", "result": 32.1, "unit": "µM"}, {"measurement": "GI50", "setting": "HL-60(TB) leukemia", "result": "< 0.01", "unit": "µM"}, {"measurement": "TGI", "setting": "HL-60(TB) leukemia", "result": 0.115, "unit": "µM"}, {"measurement": "GI50", "setting": "SK-MEL-5 melanoma", "result": 1.26, "unit": "µM"}, {"measurement": "TGI", "setting": "SK-MEL-5 melanoma", "result": 9.2, "unit": "µM"}, {"measurement": "GI50", "setting": "SW-620 colon", "result": 12.5, "unit": "µM"}, {"measurement": "TGI", "setting": "SW-620 colon", "result": "> 100", "unit": "µM"}, {"measurement": "GI50", "setting": "HT29 colon", "result": 0.085, "unit": "µM"}, {"measurement": "TGI", "setting": "HT29 colon", "result": 16.6, "unit": "µM"}, {"measurement": "GI50", "setting": "NCI-H226 lung", "result": 2.82, "unit": "µM"}, {"measurement": "TGI", "setting": "NCI-H226 lung", "result": 41, "unit": "µM"}, {"measurement": "GI50", "setting": "MDA-MB-435 melanoma", "result": 6.33, "unit": "µM"}, {"measurement": "TGI", "setting": "MDA-MB-435 melanoma", "result": 53.2, "unit": "µM"}, {"measurement": "GI50", "setting": "MCF7 breast", "result": 0.0152, "unit": "µM"}, {"measurement": "TGI", "setting": "MCF7 breast", "result": 15.1, "unit": "µM"}, {"measurement": "GI50", "setting": "SK-OV-3 ovarian", "result": 0.0291, "unit": "µM"}, {"measurement": "TGI", "setting": "SK-OV-3 ovarian", "result": 1.95, "unit": "µM"}, {"measurement": "GI50", "setting": "IGROV1 ovarian", "result": 0.0125, "unit": "µM"}, {"measurement": "TGI", "setting": "IGROV1 ovarian", "result": 0.0541, "unit": "µM"}, {"measurement": "GI50", "setting": "UO-31 renal", "result": 0.848, "unit": "µM"}, {"measurement": "TGI", "setting": "UO-31 renal", "result": "> 100", "unit": "µM"}, {"measurement": "GI50", "setting": "HCT-116 colon", "result": 1.92, "unit": "µM"}, {"measurement": "TGI", "setting": "HCT-116 colon", "result": 18.3, "unit": "µM"}, {"measurement": "GI50", "setting": "LOX IMVI melanoma", "result": 1.99, "unit": "µM"}, {"measurement": "TGI", "setting": "LOX IMVI melanoma", "result": 15.4, "unit": "µM"}, {"measurement": "GI50", "setting": "A549 NSCLC", "result": 1.43, "unit": "µM"}, {"measurement": "TGI", "setting": "A549 NSCLC", "result": 14.7, "unit": "µM"}, {"measurement": "GI50", "setting": "SN12C renal", "result": 0.27, "unit": "µM"}, {"measurement": "TGI", "setting": "SN12C renal", "result": "> 100", "unit": "µM"}]}
